Several values for one entry are separate records, joined by “and”; a condition that tells them apart may be missing. Identical values can stand only once.

Series [1] is described as follows: LCAC cytotoxicity assay (MTT) in FABP3-overexpressing PANC-1 cells. In kind it is cell-based. Conditions: human, 40 μM C16:0-carnitine, cells transfected with the FABP3 plasmid, read-out: cell viability. An excerpt:
Cells were left to attach to the plate overnight.
Briefly, the cell media were removed from the wells.
Next, we tested whether overexpression of FABP3 could result in protective effects regarding the cell viability of the PANC-1 cells. The commercially available FuGENE® HD transfection reagent (Promega Corporation, Madison, WI, USA) was mixed with the FABP3 (NM_010174) mouse tagged ORF clone plasmid (OriGene Technologies, Inc., Rockville, MD, USA) in a 4:1 ratio for transfection according to the manufacturer’s protocol. Transfection was performed for 24 h in 6-well plates. To ensure transfection efficiency, quantitative PCR (qPCR) and Western blot analysis were performed (see Figures S52 and S53). Transfected PANC-1 cells were transferred to 96-well plates and further examined for C16:0-carnitine toxicity at various concentrations as previously described. The obtained results were compared to the effects in native cells.

Series [2] addresses T1, human FABP3 (Homo sapiens, UniProt P05413).
T1 construct: His-tag (N); TEV cleavage site (N); made in house; host or cells: E. coli BL21(DE3)
As to the kind of experiment: Ligand binding by NMR (2D 1H-15N HSQC chemical shift perturbations). Particulars: KPi buffer pH 7.6. Here is the method: NMR spectra were acquired on the 600 MHz Bruker Avance Neo spectrometer (Bruker Biospin GmbH, Rheinstetten, Germany) equipped with a 5-mm quadruple-resonance CryoProbe (QCI) with z-gradients. […] All experiments were performed in KPi buffer without or with TX and with the addition of 7% (v/v) D2O, 0.03% (v/v) NaN3, and 0.01% (v/v) SigmaFAST EDTA-free protease inhibitor cocktail to prevent protein degradation. The amount of organic solvent (ethanol or DMSO-d6) was below 2% (v/v) in each experiment.
3D HNCA, 3D HNCO, 3D HN(CA)CO, and 3D CBCA(CO)NH spectra were acquired for the backbone assignment. 3D [^1H,^1H]-nuclear Overhauser spectroscopy (NOESY)-^15N-heteronuclear single-quantum correlation (HSQC) spectrum was acquired using a mixing time of 100 ms and also used in the backbone assignment. 2D ^1H-^15N HSQC spectra were acquired for evaluation of the CSPs caused by the lipid binding. Chemical shifts were referenced internally to the residual water signal at 4.70 ppm relative to the 4,4-dimethyl-4-silapentane-1-sulfonic acid (DSS). […] Other complexes were analyzed by analogy and with the help of 3D [^1H-^1H]-NOESY-^15N-HSQC. All spectra were processed in TopSpin v. 4.1.1. (Bruker, Billerica, MA, USA) and analyzed in CARA 1.9.1. software. Residue-specific protein backbone amide assignment was performed based on the published chemical shifts. CSPs, Δδ, were calculated using Equation (1) with the scaling factor, α, which was set to 0.1 [67, 68]. (1) Δδ=1/2[δH2+α·δN^2],

The nature of another series: in vitro. Particulars: human.
Series [3] deals with T1, human FABP3. As to the kind of experiment: ITC assay of ligand binding to apo-FABP3. Conditions: KPi pH 7.6, 25 °C; for N (stoichiometry): protein assumed 100% active and delipidated. On the procedure:
ITC experiments were carried out on the MicroCal™ iTC200 instrument (Malvern Instruments Ltd., Malvern, UK). Experiments were performed in KPi buffer without and with 0.1% (v/v) TX supplement. […] Experiments for the determination of the ΔCp were performed at three different temperatures: 16, 25, and 37 °C. […] Every titration started with a small 0.3 μL injection introduced to compensate for the diffusion effects. One of the following injection profiles was chosen based on the activity of the ligand and binding heat released: 1.2 μL × 32 or 1.5 μL × 26—all with 120 s time spacing between every injection and 600 rpm. Each ligand was titrated at least two times. The reference baseline consisting of small peaks of identical size (titration of the corresponding ligand into the buffer) was subtracted from the data before fitting to correct for the heat of the ligand dilution. The first injection was excluded from each dataset. The final data were fitted to a theoretical titration curve (one set of sites fitting model) using MicroCal Origin 7 SR4 software (OriginLab, Northampton, MA, USA).
For orientation: ITC needs no label: the signal is the heat of the interaction.

Series [4] has as its target T1, human FABP3. The series is described as follows: ITC determination of heat capacity change at 16, 25 and 37 °C. In kind it is binding. Particulars: ΔH at 16, 25, 37 °C, linear regression. The source says:
Heat capacity changes, ΔCp, are important indicators of the structural changes during ligand-to-protein binding in various environmental conditions and may reflect changes in the static and dynamic properties of the protein [33, 34]. Moreover, it may represent interactions with extra supplements, such as salts and detergents, and larger processes, such as changes in protein folding, solvent-accessible surface area (SASA), or protonation states within the active site. […] Thermodynamic parameters for the remaining LCFAs were determined in the KPi + TX buffer, while LCACs were tested in the KPi buffer without any additive. Figure 7 represents an example of the overlays of the ITC experiments for C18:1(n-9)c and the corresponding LCAC performed at the following temperatures: 16, 25, and 37 °C.
(§1) ITC experiments were carried out on the MicroCal™ iTC200 instrument (Malvern Instruments Ltd., Malvern, UK). Experiments were performed in KPi buffer without and with 0.1% (v/v) TX supplement. All titrations except for the determination of the heat capacity, ΔCp, were performed at 25 °C using 20–120 μM protein. Experiments for the determination of the ΔCp were performed at three different temperatures: 16, 25, and 37 °C. 280 μL of the protein solution in the sample cell were titrated with the ligand solution diluted to 200–1200 μM depending on the enzyme concentration (to achieve a 1:10 or 1:5 ratio). Every titration started with a small 0.3 μL injection introduced to compensate for the diffusion effects. One of the following injection profiles was chosen based on the activity of the ligand and binding heat released: 1.2 μL × 32 or 1.5 μL × 26—all with 120 s time spacing between every injection and 600 rpm. Each ligand was titrated at least two times. The reference baseline consisting of small peaks of identical size (titration of the corresponding ligand into the buffer) was subtracted from the data before fitting to correct for the heat of the ligand dilution. The first injection was excluded from each dataset. The final data were fitted to a theoretical titration curve (one set of sites fitting model) using MicroCal Origin 7 SR4 software (OriginLab, Northampton, MA, USA).

Series [5] deals with T1, human FABP3. As to the kind of experiment: ITC competitive binding experiments (FABP3 pre-saturated with a competing ligand). Conditions: 25 °C. On the procedure: as §1, with “The final data were fitted to a theoretical titration curve (one set of sites fitting model) using MicroCal Origin 7 SR4 software (OriginLab, Northampton, MA, USA).” left out
[6] abbreviates: FABP3 saturated with C18:1(n-9)t-carnitine, titrated with the FA, KPi without TX, Competitive Binding model.
The mark [7] stands for this setting: FABP3 saturated with C18:1(n-9)t-carnitine, titrated with the FA, KPi without TX, One Set of Sites model.
Setting [8] is: FABP3 saturated with C8:0, titrated with C18:1(n-9)t-carnitine, KPi, Competitive Binding model.
Where [9] appears, read: FABP3 saturated with C8:0, titrated with C18:1(n-9)t-carnitine, KPi, One Set of Sites model.

T1 sequence (P05413 whole entry): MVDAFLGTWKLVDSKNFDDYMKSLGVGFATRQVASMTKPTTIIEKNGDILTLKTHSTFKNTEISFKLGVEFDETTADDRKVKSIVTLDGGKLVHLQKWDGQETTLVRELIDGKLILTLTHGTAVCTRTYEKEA
Description for in vitro: PANC-1 (ATCC® CRL-1469™) pancreatic epithelial carcinoma cells were obtained from ATCC® (Manassas, VA, USA). PANC-1 cells were chosen as they are suitable for transfection and are characterized by low endogenous expression levels of FABP3. The cells were grown in Dulbecco’s Modified Eagle’s Medium (DMEM) supplemented with 10% (v/v) fetal bovine serum (FBS) and 1% (v/v) penicillin/streptomycin (Pen/Strep) at 37 °C in a humidified incubator with 5% CO2. All reagents for cell maintenance were purchased from Thermo Fisher Scientific. For experiments, PANC-1 cells were seeded at density 1 × 10^5 cells∙mL^−1 (100 μL per well) in the 96-well plate. Cells were left to attach to the plate overnight. Briefly, before the experiment, PANC-1 cells in 96-well plates were washed with Hanks’ Balanced Salt Solution (HBSS) several times. For all cell experiments, serum-free DMEM media were used.
Briefly, the cell media were removed from the wells. A solution of MTT was added to each well at the concentration of 1 mg∙mL^−1. The plate was incubated for 2 h at 37 °C. Then the MTT solution was removed and 100 μL of isopropyl alcohol was added to each well to dissolve the formazan crystals produced by living cells. The plate was then measured by the Hidex plate reader (Hidex Oy, Turku, Finland).

The viability is a per cent measure of how many cells are alive, often set against a control. Consider `CCCCCCCCCCCCCCCC(=O)O[C@H](CC(=O)[O-])C[N+](C)(C)C` [C16:0-carnitine], for which the viability at 4 h, 40 μM is approximately 70% in series [1] and less than 20% in the series “in vitro”. In addition, on human FABP3 [2], the “binding to FABP3 by NMR (CSPs in 2D 1H-15N HSQC)” value (“binding to FABP3 by NMR” for short) is given as “did not show any significant CSPs”. Besides, the CC50 at 4 h in the series “in vitro” is approximately 25 µM.
In general, Kd refers to the concentration at which binding is half-saturated. A higher Kd goes with a looser complex. With `CCCCCCCCCCCC(=O)O` [C12:0, laurate], on human FABP3 [3] (with 0.1% TX), the Kd came to 0.57 ± 0.06 µM, the ΔG was -8.54 ± 0.06 kcal/mol, the ΔH was -14.5 ± 0.4 kcal/mol and the “−TΔS” value was determined as 6.0 ± 0.3 kcal/mol. Besides, at human FABP3 [3] (with 0.1% TX), the “N (stoichiometry)” value is on record as 1.0. Moreover, on human FABP3 [3] (without TX), the Kd came out at 0.2 ± 0.02 µM, the ΔG is -9.12 ± 0.06 kcal/mol, the ΔH was -8.60 ± 0.08 kcal/mol and the “−TΔS” value was -0.53 ± 0.02 kcal/mol. The “N (stoichiometry)” value on human FABP3 [3] (without TX) is 1.0. Further, at human FABP3 [4] (KPi without TX), the ΔCp is −0.33 kcal∙mol^−1∙K^−1 and −0.33 ± 0.01 kcal∙mol^−1∙K^−1. Moreover, on human FABP3 [5] (setting [6]), the “-TΔS” value was -0.4 ± 1.1 kcal/mol, the ΔG is -12.5 ± 0.9 kcal/mol and the ΔH is -12.1 ± 0.2 kcal/mol. Besides, at human FABP3 [5] (setting [7]), the “-TΔS” value was -1.0 ± 0.1 kcal/mol, binding was put at a Kd of 0.36 ± 0.03 µM, the ΔG is -8.80 ± 0.04 kcal/mol and the ΔH is -7.8 ± 0.2 kcal/mol.
For `CC/C=C\C/C=C\C/C=C\C/C=C\C/C=C\CCCC(=O)O[C@H](CC(=O)O)C[N+](C)(C)C` [C20:5(n-3)c-carnitine, EPA-carnitine], the “binding to FABP3 by NMR” value at human FABP3 [2] is recorded as “strong CSPs indicative of binding”. On human FABP3 [3] (without TX), the Kd turned out to be 14.83 ± 0.08 µM, the ΔG was -6.61 ± 0.03 kcal/mol, the ΔH is -2.43 ± 0.09 kcal/mol and the “−TΔS” value was -4.19 ± 0.06 kcal/mol. The “N (stoichiometry)” value on human FABP3 [3] (without TX) is listed as 1.0. Moreover, at human FABP3 [4] (KPi without TX), the ΔCp is listed as −0.07 ± 0.01 kcal∙mol^−1∙K^−1.
As for `CCCCCCCC/C=C/CCCCCCCC(=O)O[C@H](CC(=O)O)C[N+](C)(C)C` [C18:1(n-9)t-carnitine, elaidoylcarnitine], the “binding to FABP3 by NMR” value at human FABP3 [2] was “strong CSPs indicative of binding”. Further, at human FABP3 [3] (without TX), the Kd is 2.2 µM and 2.19 µM; the ΔG was -7.72 ± 0.02 kcal/mol; the “N (stoichiometry)” value amounted to 0.5. On human FABP3 [4] (KPi without TX), this molecule came in with a ΔCp of −0.14 ± 0.01 kcal∙mol^−1∙K^−1. Also, at human FABP3 [5] (setting [8]), the “-TΔS” value came to 0.32 ± 0.09 kcal/mol, the ΔG was -11.7 ± 0.1 kcal/mol and the ΔH was -12.0 ± 0.3 kcal/mol. For the same molecule, at human FABP3 [5] (setting [9]), the “-TΔS” value is -5.8 ± 0.3 kcal/mol, the Kd worked out at 1.8 ± 0.2 µM, the ΔG was -7.85 ± 0.08 kcal/mol and the ΔH was -2.0 ± 0.2 kcal/mol. The “binding heat effects in competition titration” value on human FABP3 [5] (FABP3 saturated with C10:0, titrated with C18:1(n-9)t-carnitine, KPi) was “no binding heat effects were detected”.
On to `CCCCCCCC/C=C\CCCCCCCC(=O)O[C@H](CC(=O)O)C[N+](C)(C)C.[Cl-]` [C18:1(n-9)c-carnitine, oleoylcarnitine], for which the “binding to FABP3 by NMR” value on human FABP3 [2] is reported as “strong CSPs indicative of binding”. In addition, at human FABP3 [3] (without TX), the affinity, expressed as Kd, was 2.21 ± 0.07 µM; the ΔG is -7.72 ± 0.01 kcal/mol; the ΔH is -4.6 ± 0.2 kcal/mol; the “−TΔS” value is -3.1 ± 0.2 kcal/mol. Further, the “N (stoichiometry)” value on human FABP3 [3] (without TX) worked out at 0.5. For the same molecule, on human FABP3 [4] (KPi without TX), the ΔCp is −0.09 ± 0.01 kcal∙mol^−1∙K^−1.
On to `CCCCCCCC/C=C\CCCCCCCC(=O)O` [C18:1(n-9)c, oleate], for which, at human FABP3 [3] (with 0.1% TX), the Kd was found to be 0.29 ± 0.03 µM, the ΔG is -8.93 ± 0.06 kcal/mol, the ΔH is -10.0 ± 0.4 kcal/mol and the “−TΔS” value came out at 1.1 ± 0.5 kcal/mol. The “N (stoichiometry)” value at human FABP3 [3] (with 0.1% TX) is on record as 1.0. For the same molecule, the ΔCp at human FABP3 [4] (KPi with 0.1% TX) is given as −0.29 ± 0.06 kcal∙mol^−1∙K^−1.

The record behind these values is publication PMC10058761, “Heart-Type Fatty Acid Binding Protein Binds Long-Chain Acylcarnitines and Protects against Lipotoxicity” (International Journal of Molecular Sciences, 2023).
